Data as given in patent US11413278B2, “Compounds and methods for promoting stress resistance” (priority 2015, dated 2022).

Assays:
WI-38 cells [1] = conditions: read-out: Est. ED50; dose response 0.6-20 μM; H2O2-resistance
WI-38 cells [2] = experiment: Long-term effects on cell viability (5 days, ATP; morphology, PI imaging); assay type: cell-based; conditions: 10 μM; for Luminescence signal for ATP measurement, day-1 Average / Luminescence signal for ATP measurement, day-2 Average / Luminescence signal for ATP measurement, day-3 Average / Luminescence signal for ATP measurement, day-4 Average / Luminescence signal for ATP measurement, day-5 Average: n = 6; for ATP luminescence by day-5 normalized: DMSO ctrl = 100.0%;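 on Luminescence signal for ATP measurement, day-2 Average: compounds at 10 µM with ATP read daily over 5 days of treatment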;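 on Luminescence signal for ATP measurement, day-3 Average: compounds at 10 µM with ATP read daily over 5 days of treatment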;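 on Luminescence signal for ATP measurement, day-4 Average: compounds at 10 µM with ATP read daily over 5 days of treatment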;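 on Luminescence signal for ATP measurement, day-5 Average: compounds at 10 µM with ATP read daily over 5 days of treatment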
Experimental: In addition, cell death was scored by PI-imaging on day 2 and day 5 of treatment.
Applicants introduced molecules (at 10 uM final concentration) to WI-38 fibroblasts and then assayed cell viability (through ATP measurement) everyday, during a course of 5 days of continuous treatment. […] Applicants also examined the morphology and scored cell death (propidium iodide staining) for cells treated with the above molecules. Of these 14 molecules, some appeared to cause cell toxicity. […] Despite the observed long-term toxicity, these molecules are still interesting as they may act as anti-tumor agents in vivo, should they have more pronounced cytotoxicity on highly proliferative tumor cells. When cells were incubated with these molecules for ˜24 hrs and then subject to hydrogen peroxide for 3 hrs, these molecules are all protective. […] Some of these small molecules may be toxic by themselves under certain conditions, but by inducing protective mechanisms, they may trigger “hormesis” and therefore protect cells from oxidative stress.

[3] = system: phosphorylated γH2A.X and TP53BP1; experiment: DNA damage marker analysis (immuno-staining)
Experimental: WI-38 cells were seeded on 96-well plates and cultured for 24 hrs and then incubated with small molecules for another 24 hrs. As the positive control to damage DNA, H2O2 was supplemented at 700 μM final concentration for the last 3 hrs. Cells were washed with phosphate-buffered saline (PBS), fixed with 4% paraformaldehyde and then blocked with 5% normal goat serum (Cell Signaling), plus 0.3% Triton X-100, for 1 hr. Primary antibody cocktail (rabbit anti-phospho-histone γH2A.X (Ser-139), 1:100; anti-phospho-TP53BP1 (Ser-1778), 1:100), prepared in 1% BSA and 0.3% Triton X-100/PBS, was then introduced and incubated overnight at 4 C. Next day, samples were washed with PBS and further incubated with fluorophore-conjugated secondary antibody (1:1,000) for 1 hr in the dark. Samples were then washed and incubated with DAPI dye (Life Technologies) (4 μg/ml final concentration) for the last 10 minutes. Images were collected on an INCell Analyzer 2000 (GE) and analyzed with the Developer software.
WI-38 cells were seeded (˜8,000 cells per well) on 96-well plates and cultured for 24 hrs and then incubated with small molecules for another 24 hrs. Doxorubicin (300 nM, 24 hrs) and H2O2 (700 μM, 3 hrs) were also introduced as the positive controls to damage DNA. Cells were washed with phosphate-buffered saline (PBS), fixed with 4% paraformaldehyde for 30 min and then blocked with 5% normal goat serum (Cell Signaling) and 0.3% Triton X-100 for 1 hr. Primary antibody cocktail (Cell Signaling, rabbit anti-phospho-histone γH2A.X (Ser-139), 1:100; anti-phospho-TP53BP1 (Ser-1778), 1:100) was prepared in PBS with 1% BSA and 0.3% Triton X-100 and incubated overnight at 4° C. Next day, samples were washed with PBS and further incubated with fluorophore-conjugated secondary antibody (1:1,000) for 1 hr in dark. Samples were then washed and incubated with DAPI dye (Life Technologies) (4 μg/ml final concentration) for 30 minutes. Images were collected on the INCell Analyzer 2000 (10× objective) and analyzed with the Developer Toolbox.

[4] = Batch 1, day-0 luminescence = 320956 ± 24708
[5] = Batch 2, day-0 luminescence = 229312 ± 17487

Cc1ccc(C(=O)Nc2ccc3ccc4cccnc4c3n2)cc1 [Gr-3D]
EC50 (WI-38 cells [1]): 4.96 µM

COCCCN1Cc2cccc(C(N)=O)c2C1=O [O2]
EC50 (WI-38 cells [1]): 20 µM

CO[C@H]1C[C@@H]2CC[C@@H](C)[C@@](O)(O2)C(=O)C(=O)N2CCCC[C@H]2C(=O)O[C@H]([C@H](C)C[C@@H]2CC[C@@H](O)[C@H](OC)C2)CC(=O)[C@H](C)/C=C(\C)[C@@H](O)[C@@H](OC)C(=O)[C@H](C)C[C@H](C)/C=C/C=C/C=C/1C [Rapa]
Luminescence signal for ATP measurement, day-1 Average (WI-38 cells [2]; [4]): 454546
Luminescence signal for ATP measurement, day-2 Average (WI-38 cells [2]; [4]): 519403
Luminescence signal for ATP measurement, day-3 Average (WI-38 cells [2]; [4]): 545026
Luminescence signal for ATP measurement, day-4 Average (WI-38 cells [2]; [4]): 552160
ATP luminescence by day-5 normalized (WI-38 cells [2]; Batch 1): 53.3%
Luminescence signal for ATP measurement, day-5 Average (WI-38 cells [2]; [4]): 547771
Luminescence signal for ATP measurement, day-1 Average (WI-38 cells [2]; [5]): 239521
Luminescence signal for ATP measurement, day-2 Average (WI-38 cells [2]; [5]): 221640
Luminescence signal for ATP measurement, day-3 Average (WI-38 cells [2]; [5]): 244073
Luminescence signal for ATP measurement, day-4 Average (WI-38 cells [2]; [5]): 276911
ATP luminescence by day-5 normalized (WI-38 cells [2]; Batch 2): 47.3%
Luminescence signal for ATP measurement, day-5 Average (WI-38 cells [2]; [5]): 262898

CCCCCCc1cc(C=O)c(O)cc1O [O29]
EC50 (WI-38 cells [1]): 15.3 µM

Nc1c(Cl)ncnc1NCCCn1ccnc1 [O31]
EC50 (WI-38 cells [1]): 10.6 µM

Cc1cc(C)n(-c2nc(O)cc(-c3ccccc3)n2)n1 [O28]
EC50 (WI-38 cells [1]): 5.4 µM

CC(C)CCOc1ccc(C(=O)C(CN2CCOCC2)c2ccccc2)cc1 (centres unmarked) [O30]
EC50 (WI-38 cells [1]): 4.2 µM

OO [H2O2, hydrogen peroxide, reference compound]
TP53BP1-positive cells [3]: ~45.8±5.1%
γH2A.X-positive cells [3]: ~50.9±4.2%
